Activity calls are given as the source filed them. No cut-off for these calls is given here.

Assay [1] relates to SW982. Put plainly: Cytotoxicity against human SW982 cells assessed as reduction in cell viability incubated for 72 hrs by MTT assay. It counts as functional.
The test system of assay [2] is Mus musculus. Put plainly: Downregulation of H3K27me3 expression in tumor tissue of BALB/c nude mouse xenografted with human RD cells at 20 mg/kg, ip administered for 5 consecutive days followed by 2 rest days for 3 weeks by Western blotting analysis. It counts as functional, organism-based.
In assay [3] the test system is RD. Put plainly: Antitumor activity against human RD cells xenografted in BALB/c nude mouse assessed as tumor growth inhibition at 20 mg/kg, ip administered for 5 consecutive days followed by 2 rest days for 3 weeks. The following applies: 504 h, read-out: TGI.
Assay [4] relates to RD. Description: Cytotoxicity against human RD cells assessed as reduction in cell viability incubated for 72 hrs by MTT assay. It counts as functional.
The subject of assay [5] is Mus musculus. Put plainly: Downregulation of H3K9me2 expression in tumor tissue of BALB/c nude mouse xenografted with human RD cells at 20 mg/kg, ip administered for 5 consecutive days followed by 2 rest days for 3 weeks by Western blotting analysis. The format is functional, organism-based.
Assay [6] concerns the target Histone-lysine N-methyltransferase EZH2 (Homo sapiens, UniProt Q15910). Description: Inhibition of human EZH2 using SAM as substrate incubated for 1 hr by microplate luminescence based HMT assay.
Assay [7] addresses T1, Histone-lysine N-methyltransferase EHMT2 (Homo sapiens, UniProt Q96KQ7).
T1 sequence (Q96KQ7 whole entry): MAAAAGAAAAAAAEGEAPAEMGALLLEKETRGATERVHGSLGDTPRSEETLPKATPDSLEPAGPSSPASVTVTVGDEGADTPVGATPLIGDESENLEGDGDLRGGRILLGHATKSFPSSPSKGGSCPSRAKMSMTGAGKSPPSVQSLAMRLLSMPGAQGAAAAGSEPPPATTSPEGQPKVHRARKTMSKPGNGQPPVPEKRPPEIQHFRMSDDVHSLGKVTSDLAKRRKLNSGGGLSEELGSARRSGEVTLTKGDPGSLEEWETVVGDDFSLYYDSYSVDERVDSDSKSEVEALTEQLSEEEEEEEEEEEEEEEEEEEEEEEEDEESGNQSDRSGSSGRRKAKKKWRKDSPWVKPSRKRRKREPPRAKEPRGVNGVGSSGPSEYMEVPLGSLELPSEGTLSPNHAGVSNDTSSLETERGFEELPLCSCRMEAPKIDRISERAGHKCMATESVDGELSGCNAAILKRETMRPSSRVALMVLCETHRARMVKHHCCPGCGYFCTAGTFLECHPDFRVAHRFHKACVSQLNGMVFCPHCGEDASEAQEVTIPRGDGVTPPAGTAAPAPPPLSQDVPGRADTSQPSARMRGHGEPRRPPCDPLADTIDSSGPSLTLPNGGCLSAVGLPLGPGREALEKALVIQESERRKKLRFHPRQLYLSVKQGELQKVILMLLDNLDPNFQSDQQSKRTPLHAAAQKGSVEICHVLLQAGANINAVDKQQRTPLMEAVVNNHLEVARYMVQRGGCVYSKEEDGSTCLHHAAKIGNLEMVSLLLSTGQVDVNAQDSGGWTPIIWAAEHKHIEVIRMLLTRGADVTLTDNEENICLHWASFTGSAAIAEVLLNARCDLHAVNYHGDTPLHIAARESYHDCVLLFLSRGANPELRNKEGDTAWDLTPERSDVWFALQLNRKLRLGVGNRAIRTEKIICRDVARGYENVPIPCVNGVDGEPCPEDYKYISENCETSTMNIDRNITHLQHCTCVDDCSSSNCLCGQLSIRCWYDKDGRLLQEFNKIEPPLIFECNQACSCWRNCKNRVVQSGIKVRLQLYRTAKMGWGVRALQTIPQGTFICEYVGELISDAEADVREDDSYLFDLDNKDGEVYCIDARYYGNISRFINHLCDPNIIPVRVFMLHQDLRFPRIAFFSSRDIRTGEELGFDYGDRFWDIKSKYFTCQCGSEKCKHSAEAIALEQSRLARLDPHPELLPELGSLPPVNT
Description: Inhibition of human recombinant EHMT2 G9a using SAM as substrate incubated for 1 hr by microplate luminescence based HMT assay.

For assay [8], the system named is SW982. Description: Antiproliferative activity against human SW982 cells assessed as reduction in clone formation rate at 5 uM for 1 to 2 weeks with fresh medium replacement for every 2 to 3 days by crystal violet staining based microscopic analysis. It counts as functional, cell-based. The conditions noted are these: time 1-2 weeks.
Assay [9] deals with SW982. Description: Antiproliferative activity against human SW982 cells assessed as reduction in clone formation rate at 5 uM for 1 to 2 weeks with fresh medium replacement for every 2 to 3 days in presence of tazemetostat by crystal violet staining based microscopic analysis. The format is functional, cell-based. The following applies: time 1-2 weeks.
The test system of assay [10] is RD. Put plainly: Antiproliferative activity against human RD cells assessed as reduction in clone formation rate at 5 uM for 1 to 2 weeks with fresh medium replacement for every 2 to 3 days in presence of tazemetostat by crystal violet staining based microscopic analysis. The format is functional, cell-based. The following applies: time 1-2 weeks.
Assay [11] concerns RD. Put plainly: Antiproliferative activity against human RD cells assessed as reduction in clone formation rate at 5 uM for 1 to 2 weeks with fresh medium replacement for every 2 to 3 days by crystal violet staining based microscopic analysis. It counts as functional, cell-based. The conditions noted are these: time 1-2 weeks.

Sequence of Histone-lysine N-methyltransferase EZH2 (Q15910 whole entry): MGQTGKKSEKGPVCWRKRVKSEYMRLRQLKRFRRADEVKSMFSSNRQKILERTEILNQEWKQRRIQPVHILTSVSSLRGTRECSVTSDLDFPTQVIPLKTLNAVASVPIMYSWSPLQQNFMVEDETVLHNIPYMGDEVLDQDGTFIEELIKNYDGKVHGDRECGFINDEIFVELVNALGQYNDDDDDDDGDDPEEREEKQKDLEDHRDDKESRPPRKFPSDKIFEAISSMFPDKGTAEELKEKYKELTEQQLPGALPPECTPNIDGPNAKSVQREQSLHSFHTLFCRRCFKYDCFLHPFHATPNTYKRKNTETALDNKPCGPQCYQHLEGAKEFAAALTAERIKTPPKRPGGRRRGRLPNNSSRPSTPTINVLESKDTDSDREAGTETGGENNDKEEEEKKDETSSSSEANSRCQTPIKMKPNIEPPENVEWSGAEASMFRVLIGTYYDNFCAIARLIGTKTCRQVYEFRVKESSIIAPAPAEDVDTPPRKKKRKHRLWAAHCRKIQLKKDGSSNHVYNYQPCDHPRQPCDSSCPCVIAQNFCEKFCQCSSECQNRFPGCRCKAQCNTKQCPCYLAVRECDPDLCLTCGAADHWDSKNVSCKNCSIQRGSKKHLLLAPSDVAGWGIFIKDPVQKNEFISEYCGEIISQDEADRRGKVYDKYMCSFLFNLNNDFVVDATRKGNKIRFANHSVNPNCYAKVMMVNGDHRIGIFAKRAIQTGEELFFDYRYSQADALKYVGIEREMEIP

Regarding `CCN(c1cc(-c2ccc(CN3CCOCC3)cc2)cc(C(=O)NCc2c(C)cc(C)[nH]c2=O)c1C)C1CCOCC1` [TAZEMETOSTAT], the cytotoxic concentration (CC50) worked out at 116 µM with SW982 [1] and 245 µM in the assay on RD [4]. Further, the result in the assay with Mus musculus [2] and in the assay with Mus musculus [5] was Active. In addition, in the assay on RD [3], the inhibition in vivo at 20 mg/kg was 69.2%.

As to `COc1cc2c(NCc3c(C)cc(C)[nH]c3=O)nc(N3CCCCC3)nc2cc1OCCCN1CCCC1`, the results for the 50% cytotoxic concentration (CC50) in the assay with SW982 [1] and in the assay with RD [4] were 27 µM and 41.3 µM, respectively.

Regarding `COc1cc2nc(N(C)CCCN(C)C)nc(NCc3c(C)cc(C)[nH]c3=O)c2cc1OC`, the 50% cytotoxic concentration (CC50) with SW982 [1] came to 101 µM; with RD [4], 76 µM.

Take `COc1cc2nc(N3CCN(C)CC3)nc(NCc3c(C)cc(C)[nH]c3=O)c2cc1OC`: the results for the CC50 in the assay on SW982 [1] and with RD [4] were 106 µM and 79.9 µM, respectively.

For `COc1cc2c(NCc3c(C)cc(C)[nH]c3=O)nc(N3CCOCC3)nc2cc1OCCCN1CCCC1`, the half-maximal cytotoxic concentration (CC50) in the assay on SW982 [1] came out at 99.8 µM; in the assay on RD [4], 73.8 µM.

In the case of `CCN(CC)c1nc(NCc2c(C)cc(C)[nH]c2=O)c2cc(OC)c(OCCCN3CCCC3)cc2n1`, the figures for the CC50 with SW982 [1] and with RD [4] were 87.7 µM and 82.5 µM, respectively.

Regarding `COc1cc2nc(N(C)CCN(C)C)nc(NCc3c(C)cc(C)[nH]c3=O)c2cc1OC`, the cytotoxic concentration (CC50) in the assay with SW982 [1] stood at 85.7 µM; with RD [4], 84.9 µM.

For `COc1cc2c(NCc3c(C)cc(C)[nH]c3=O)nc(N3CCCN(C)CC3)nc2cc1OCCCN1CCCC1`, the results for the CC50 in the assay with SW982 [1] and in the assay on RD [4] were 48.9 µM and 56.5 µM, respectively.

Turning to `COc1cc2c(NCc3c(C)cc(C)[nH]c3=O)nc(N(C)C)nc2cc1OCCCN1CCCC1`, the values for the CC50 with SW982 [1] and with RD [4] were 85 µM and 74.4 µM, respectively.

On to `COc1cc2c(NCc3c(C)cc(C)[nH]c3=O)nc(N(C)CCN(C)C)nc2cc1OCCCN1CCCC1`, for which the half-maximal cytotoxic concentration (CC50) in the assay with SW982 [1] was 78.3 µM; with RD [4], 74.3 µM.

`CCN1CCN(c2nc(NCc3c(C)cc(C)[nH]c3=O)c3cc(OC)c(OCCCN4CCCC4)cc3n2)CC1`: the 50% cytotoxic concentration (CC50) in the assay with SW982 [1] came out at 53.6 µM; in the assay on RD [4], 22.7 µM.

With `COc1cc2c(NCc3c(C)cc(C)[nH]c3=O)nc(N3CCCC3)nc2cc1OCCCN1CCCC1`, the CC50 in the assay on SW982 [1] turned out to be 90.2 µM; in the assay with RD [4], 75.7 µM.

For the compound `COc1cc2nc(N3CCOCC3)nc(NCc3c(C)cc(C)[nH]c3=O)c2cc1OC`, the CC50 was found to be 89.2 µM in the assay with SW982 [1] and 77.2 µM with RD [4].

Take `COc1cc2c(NCc3c(C)cc(C)[nH]c3=O)nc(N3CCCCCC3)nc2cc1OCCCN1CCCC1`: the CC50 in the assay with SW982 [1] worked out at 35.7 µM; with RD [4], 23.5 µM.

With `COc1cc2c(NCc3c(C)cc(C)[nH]c3=O)nc(N3CCN(C)CC3)nc2cc1OCCCN1CCCC1`, the 50% cytotoxic concentration (CC50) is 67.2 µM with SW982 [1] and 60.1 µM in the assay on RD [4].

`COc1cc2nc(N3CCCN(C)CC3)nc(NCc3c(C)cc(C)[nH]c3=O)c2cc1OC`: the IC50 in assay [6] amounted to 0.0533 µM; in assay [7], 0.015 µM. For the same compound, the CC50 in the assay with SW982 [1] was 99.8 µM; in the assay on RD [4], 68.5 µM.

For the compound `COc1cc2c(NCc3c(C)cc(C)[nH]c3=O)nc(N3CCC(OC)CC3)nc2cc1OCCCN1CCCC1`, the CC50 with SW982 [1] was 61.6 µM; in the assay on RD [4], 40.1 µM.

`COc1cc2c(NC3CCN(C(C)C)CC3)nc(C3CCCCC3)nc2cc1OCCCN1CCCC1`: the results for the CC50 in the assay with SW982 [1] and with RD [4] were 29.5 µM and 34.2 µM, respectively. Also, the outcome with SW982 [8], in the assay on SW982 [9], with RD [10] and with RD [11] was Active.

These data come from ChEMBL document CHEMBL5338739, “Discovery of Dual Lysine Methyltransferase G9a and EZH2 Inhibitors with In Vivo Efficacy against Malignant Rhabdoid Tumor” (J Med Chem, 2023).
